The source of these data is patent US20150065440A1 (Progen Pharmaceuticals Limited, priority 2007, published 2015).

The format of this series is in vivo, Sprague-Dawley rats. Particulars: rat, in vivo, iv. Here is the method:
Adult male Sprague-Dawley (SD) rats (approx 300 g) were used for the experiment. Femoral artery cannulae was implanted and exteriorised following isoflurane anaesthesia. Jugular vein artery cannulae was implanted and exteriorized. […]. Blood samples (˜325 μL) were collected into sample tubes containing the anticoagulant sodium citrate from femoral artery catheter pre-dose and at 5, 20 minutes and 2, 5, 8, 12, 24, and 48 hours post-dose, and kept at reduced temperature (approx 4° C.) until centrifuged. Blood samples were centrifuged, plasma separated and 50 μL aliquot of the plasma transferred to a scintillation vial for counting. At the end of the experimental period animals were euthanased via a lethal overdose of pentobarbital. The level of radioactivity in the plasma was measured following mixing of samples with Packard Ultima Gold liquid scintillation counting cocktail. Counting was conducted on a Beckman liquid scintillation counter (LS6500) or Packard TriCarb liquid scintillation counter for 10 minutes per sample. Results (DPM, calculated from an in-built quench curve in the counter) were corrected for background prior to any calculations. The pharmacokinetic parameters were calculated using PK Solutions 2.0 software (Summit Research Services, Ohio, U.S.A.) and are summarised in Table 11 below.

SMILES strings stand for the structures.

As for `CC(C)CCC[C@@H](C)[C@H]1CC[C@H]2[C@@H]3CCC4CC(OCc5cn([C@@H]6O[C@H](COS(=O)(=O)[O-])[C@@H](O[C@H]7O[C@H](COS(=O)(=O)[O-])[C@@H](O[C@H]8O[C@H](COS(=O)(=O)[O-])[C@@H](OS(=O)(=O)[O-])[C@H](OS(=O)(=O)[O-])[C@H]8OS(=O)(=O)[O-])[C@H](OS(=O)(=O)[O-])[C@H]7OS(=O)(=O)[O-])[C@H](OS(=O)(=O)[O-])[C@H]6OS(=O)(=O)[O-])nn5)CC[C@]4(C)[C@H]3CC[C@]12C.[Na+].[Na+].[Na+].[Na+].[Na+].[Na+].[Na+].[Na+].[Na+].[Na+]` (stereo partly drawn) [Compound 70, 4-(Cholestan-3-yl-oxymethyl)[1,2,3]triazol-1-yl 2,3,4,6-tetra-O-sodium sulfonato-α-D-glucopyranosyl-(1→4)-2,3,6-tri-O-sodium sulfonato-α-D-glucopyranosyl-(1→4)-1-deoxy-2,3,6-tri-O-sodium sulfonato-β-D-glucopyranoside], the “Half-life (iv)” value came to 10.3 h.
